Test results taken from publication PMC8305664, “Knockdown of a β-Adrenergic-Like Octopamine Receptor Affects Locomotion and Reproduction of Tribolium castaneum” (International Journal of Molecular Sciences, 2021).

target: T1, TcOctβ2R (β-adrenergic-like octopamine receptor) (Tribolium castaneum, UniProt N1NSX1); experiment: GloSensor cAMP assay in HEK […] cells expressing the receptor (agonist); format: cell-based
T1 construct: full ORF (411 amino acids), pcDNA3.1(+), transiently expressed in HEK 293 cells
T1 sequence (N1NSX1 1-411): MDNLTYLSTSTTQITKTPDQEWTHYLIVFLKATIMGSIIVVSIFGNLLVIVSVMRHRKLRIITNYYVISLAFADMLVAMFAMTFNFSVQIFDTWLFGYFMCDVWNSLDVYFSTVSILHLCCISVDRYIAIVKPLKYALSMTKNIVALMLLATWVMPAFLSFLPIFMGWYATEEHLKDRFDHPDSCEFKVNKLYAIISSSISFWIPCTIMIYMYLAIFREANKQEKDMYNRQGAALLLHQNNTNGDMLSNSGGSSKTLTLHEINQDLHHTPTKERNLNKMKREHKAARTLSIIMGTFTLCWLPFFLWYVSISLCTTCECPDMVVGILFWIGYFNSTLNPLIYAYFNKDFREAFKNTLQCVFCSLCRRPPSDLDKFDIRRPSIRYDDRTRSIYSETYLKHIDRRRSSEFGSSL

EC50 [µM]	Structure (SMILES)
0.0071	c1ccc2c(CC3=NCCN3)cccc2c1 [naphazoline]
0.028	NCC(O)c1ccc(O)cc1 (stereo not drawn) [octopamine]
0.2	NCCc1ccc(O)cc1 [tyramine]
